Patent publication US10370355B2, “Tetrahydroisoquinoline derivatives” (UCB Biopharma SPRL, priority 2016, dated 2019)

Target: T1, dopamine D1 receptor (Homo sapiens, UniProt P21728)
T1 construct: host or cells: LMtk (Ltk-) mouse fibroblast cells
Assay: cAMP HTRF potentiation assay (presence of EC20 dopamine)
Type: cell-based
Conditions: potentiation of cAMP in presence of EC20 dopamine (1.1 nM); LMtk (Ltk-) mouse fibroblast cells expressing the dopamine D1 receptor
Excerpt: The present assay allows to measure respectively the effects of compounds of the Examples in the absence of dopamine (“activation assay”) and the effects of compounds of the Examples in the presence of dopamine (“potentiation assay”).
The potentiation assay measures the ability of compounds to increase the levels of cAMP produced by a low-threshold concentration of dopamine. The concentration of dopamine used ([EC20]) is designed to produce 20% stimulation compared to the maximal response (100%) seen with increasing the concentration of dopamine. To measure this potentiation we incubate increasing concentrations of the compound with the [EC2O] of dopamine and measure the potentiation as increases in cAMP production. The pEC50 of a compound is the −log 10 of the concentration of the compound which produces 50% of the potentiation of the cAMP levels and the Erel is the relative efficacy, defined as the maximal % potentiation produced by the compound compared to the maximal response produced by increasing concentrations of dopamine (Erel of 1=dopamine maximum response).
Cells were cultured at 37° C. in a humidified atmosphere of 5% CO2. Cells were grown in DMEM-F12+GlutaMAX™-I medium (GIBCO®, Invitrogen, Merelbeke, Belgium) containing 10% fetal bovine serum (BioWhittaker®, Lonza, Verviers, Belgium), 400 μg/mL Geneticin (GIBCO®), 100 IU/mL Penicillin and 100 IU/mL Streptomycin (Pen-Strep solution, BioWhittaker®).
The measurement of changes in intracellular cyclic adenosinemonophopshpate (cAMP) was determined using the HTRF cAMP dynamic assay kit from CisBio (Codolet, France). Using homogenous time-resolved fluoresence technology, the assay is based on competition between native cAMP produced by cells and cAMP labelled with the dye d2. The tracer binding is determined by an anti-cAMP antibody labeled with cryptate. The effects of the compound alone (agonism) was determined by performing the assay in the absence of dopamine, whilst the effect of the compound as a positive allosteric modulator (PAM) was determined in the presence of an EC20 concentration of dopamine. Cells (20,000 per well) are incubated in 384 plates for 1 hour at room temperature in a final volume of 20 μLHBSS (Lonza, with calcium, magnesium and HEPES buffer 20 mM, pH 7.4) containing: isobutyl methylxanthine (Sigma, 0.1 mM final), varying concentrations of test compound (typically […] to 10^−4.5M) in the presence and absence of dopamine (1.1 nM final). The reaction is then terminated and the cells lysed by adding the d2 detection reagent in lysis buffer (10 microL) and the cryptate reagent in lysis buffer (10 microl) according to manufacturer's instructions. This is then incubated for a further 60 min at room temperature and changes in HTRF fluorescent emission ratio determined according to manufacturer's instructions using an Envision plate reader (Perkin Elmer, Zaventem, Belgium) with laser excitation. All incubations were performed in duplicate and results were compared to a concentration-effect curve to dopamine. (10^−11M to 10^−6M).
Data was analyzed using Excel and PRISM (GraphPad Software) to obtain pEC50 and Erel using the 4-parameter logistic equation (DeLean et al, 1978) where Erel is the fitted maximal response of the test compound minus basal expressed as a percentage relative to that obtained with dopamine which was defined as 100%.

T1 sequence (P21728 whole entry): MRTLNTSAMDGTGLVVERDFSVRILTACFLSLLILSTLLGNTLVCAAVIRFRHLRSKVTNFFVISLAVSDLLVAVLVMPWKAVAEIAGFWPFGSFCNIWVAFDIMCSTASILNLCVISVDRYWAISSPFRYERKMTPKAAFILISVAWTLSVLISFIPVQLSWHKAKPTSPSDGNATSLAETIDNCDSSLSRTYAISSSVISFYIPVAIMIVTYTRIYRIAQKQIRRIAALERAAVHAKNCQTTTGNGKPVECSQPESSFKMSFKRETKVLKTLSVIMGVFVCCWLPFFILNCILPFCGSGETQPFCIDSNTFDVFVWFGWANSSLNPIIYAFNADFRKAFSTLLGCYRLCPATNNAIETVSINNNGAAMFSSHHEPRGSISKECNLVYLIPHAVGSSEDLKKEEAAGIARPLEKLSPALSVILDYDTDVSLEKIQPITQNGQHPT

Row | SMILES | EC50
1 | C[C@H]1c2cccc(C(O)(CF)CF)c2CCN1C(=O)Cc1c(Cl)cnc2[nH]nc(Cl)c12 [Example 18, 2-(3,5-dichloro-1H-pyrazolo[3,4-b]pyridin-4-yl)-1-[(1S)-5-[2-fluoro-1-(fluoromethyl)-1-hydroxy-ethyl]-1-methyl-3,4-dihydro-1H-isoquinolin-2-yl]ethanone] | 31.6 to 100 nM
2 | C[C@H]1c2cccc([C@](C)(O)CF)c2CCN1C(=O)Cc1c(Cl)ccc2c1c(Cl)nn2C [Example 25, 2-(3,5-dichloro-1-methyl-indazol-4-yl)-1-[(1S)-5-[(1S)-2-fluoro-1-hydroxy-1-methyl-ethyl]-1-methyl-3,4-dihydro-1H-isoquinolin-2-yl]ethanone] | 31.6 to 100 nM
3 | C[C@H]1c2cccc([C@@](C)(O)CF)c2CCN1C(=O)Cc1c(Cl)cnc2c1c(Cl)nn2C [Example 19, 2-(3,5-dichloro-1-methyl-pyrazolo[3,4-b]pyridin-4-yl)-1-[(1S)-5-((1R)-2-fluoro-1-hydroxy-1-methyl-ethyl)-1-methyl-3,4-dihydro-1H-isoquinolin-2-yl]ethanone] | 31.6 to 100 nM
4 | C[C@H]1c2cccc([C@H](O)C(F)F)c2CCN1C(=O)Cc1c(Cl)ccc2nn(C)c(Cl)c12 [Example 9, 2-(3,5-dichloro-2-methyl-indazol-4-yl)-1-[(1S)-5-[(1S)-2,2-difluoro-1-hydroxy-ethyl]-1-methyl-3,4-dihydro-1H-isoquinolin-2-yl]ethanone] | 31.6 to 100 nM
5 | C[C@H]1c2cccc([C@H](O)C(F)F)c2CCN1C(=O)Cc1c(Cl)ccc2c1c(Cl)nn2C [Example 11, 2-(3,5-dichloro-1-methyl-indazol-4-yl)-1-[(1S)-5-[(1S)-2,2-difluoro-1-hydroxy-ethyl]-1-methyl-3,4-dihydro-1H-isoquinolin-2-yl]ethanone] | 31.6 to 100 nM
6 | C[C@H]1c2cccc(C(C)(O)C(F)F)c2CCN1C(=O)Cc1c(Cl)ccc2nn(C)c(Cl)c12 (single isomer, unassigned) [Example 12] | 31.6 to 100 nM
7 | C[C@H]1c2cccc(C(C)(O)C(F)F)c2CCN1C(=O)Cc1c(Cl)c(C2CC2)cn2ncc(Cl)c12 (single isomer, unassigned) [Example 31] | 31.6 to 100 nM
8 | C[C@H]1c2cccc([C@@H](O)C(F)F)c2CCN1C(=O)Cc1c(Cl)ccc2c1c(Cl)nn2C [Example 10, 2-(3,5-dichloro-1-methyl-indazol-4-yl)-1-[(1S)-5-[(1R)-2,2-difluoro-1-hydroxy-ethyl]-1-methyl-3,4-dihydro-1H-isoquinolin-2-yl]ethanone] | 31.6 to 100 nM
9 | C[C@H]1c2cccc(C(C)(O)C(F)F)c2CCN1C(=O)Cc1c(Cl)ccc2c1c(Cl)nn2C (single isomer, unassigned) [Example 26] | 31.6 to 100 nM
10 | C[C@H]1c2cccc([C@@](C)(O)CF)c2CCN1C(=O)Cc1c(Cl)ccc2c1c(Cl)nn2C [Example 24, 2-(3,5-dichloro-1-methyl-indazol-4-yl)-1-[(1S)-5-[(1R)-2-fluoro-1-hydroxy-1-methyl-ethyl]-1-methyl-3,4-dihydro-1H-isoquinolin-2-yl]ethanone] | 31.6 to 100 nM
11 | C[C@H]1c2cccc([C@](C)(O)CF)c2CCN1C(=O)Cc1c(Cl)ccc2[nH]nc(Cl)c12 [Example 3, 2-(3,5-dichloro-1H-indazol-4-yl)-1-[(1S)-5-[(1S)-2-fluoro-1-hydroxy-1-methyl-ethyl]-1-methyl-3,4-dihydro-1H-isoquinolin-2-yl]ethanone] | ≤ 31.6 nM
12 | C[C@H]1c2cccc(C(O)(CF)CF)c2CCN1C(=O)Cc1c(Cl)cnc2c1c(Cl)nn2C [Example 23, 2-(3,5-dichloro-1-methyl-pyrazolo[3,4-b]pyridin-4-yl)-1-[(1S)-5-[2-fluoro-1-(fluoromethyl)-1-hydroxy-ethyl]-1-methyl-3,4-dihydro-1H-isoquinolin-2-yl]ethanone] | 31.6 to 100 nM

Second part, the compound after the results:

Row | EC50 | SMILES
13 | ≤ 31.6 nM | C[C@H]1c2cccc(C(C)(O)C(F)F)c2CCN1C(=O)Cc1c(Cl)cnc2[nH]nc(Cl)c12 (single isomer, unassigned) [Example 16]
14 | ≤ 31.6 nM | C[C@H]1c2cccc([C@H](O)C(F)F)c2CCN1C(=O)Cc1c(Cl)ccn2ncc(Cl)c12 [Example 30, 2-(3,5-dichloropyrazolo[1,5-a]pyridin-4-yl)-1-[(1S)-5-[(1S)-2,2-difluoro-1-hydroxy-ethyl]-1-methyl-3,4-dihydro-1H-isoquinolin-2-yl]ethanone]
15 | ≤ 31.6 nM | C[C@H]1c2cccc([C@@H](O)C(F)F)c2CCN1C(=O)Cc1c(Cl)ccc2nn(C)c(Cl)c12 [Example 8, 2-(3,5-dichloro-2-methyl-indazol-4-yl)-1-[(1S)-5-[(1R)-2,2-difluoro-1-hydroxy-ethyl]-1-methyl-3,4-dihydro-1H-isoquinolin-2-yl]ethanone]
16 | ≤ 31.6 nM | C[C@H]1c2cccc(C(C)(O)C(F)F)c2CCN1C(=O)Cc1c(Cl)cnc2c1c(Cl)nn2C (single isomer, unassigned) [Example 21]
17 | ≤ 31.6 nM | C[C@H]1c2cccc([C@@H](O)C(F)F)c2CCN1C(=O)Cc1c(Cl)ccc2[nH]nc(Cl)c12 [Example 4, 2-(3,5-dichloro-1H-indazol-4-yl)-1-[(1S)-5-[(1R)-2,2-difluoro-1-hydroxy-ethyl]-1-methyl-3,4-dihydro-1H-isoquinolin-2-yl]ethanone]
18 | ≤ 31.6 nM | C[C@H]1c2cccc(C(C)(O)C(F)F)c2CCN1C(=O)Cc1c(Cl)ccc2[nH]nc(Cl)c12 (single isomer, unassigned) [Example 6]
19 | ≤ 31.6 nM | C[C@H]1c2cccc([C@H](O)C(F)F)c2CCN1C(=O)Cc1c(Cl)ccc2[nH]nc(Cl)c12 [Example 5, 2-(3,5-dichloro-1H-indazol-4-yl)-1-[(1S)-5-[(1S)-2,2-difluoro-1-hydroxy-ethyl]-1-methyl-3,4-dihydro-1H-isoquinolin-2-yl]ethanone]
20 | ≤ 31.6 nM | C[C@H]1c2cccc([C@@](C)(O)CF)c2CCN1C(=O)Cc1c(Cl)cnc2[nH]nc(Cl)c12 [Example 15, 2-(3,5-dichloro-1H-pyrazolo[3,4-b]pyridin-4-yl)-1-[(1S)-5-[(1R)-2-fluoro-1-hydroxy-1-methyl-ethyl]-1-methyl-3,4-dihydro-1H-isoquinolin-2-yl]ethanone]
21 | ≤ 31.6 nM | C[C@H]1c2cccc(C(C)(O)C(F)F)c2CCN1C(=O)Cc1c(Cl)c(C#N)cn2ncc(Cl)c12 (single isomer, unassigned) [Example 32]
22 | ≤ 31.6 nM | C[C@H]1c2cccc([C@](C)(O)CF)c2CCN1C(=O)Cc1c(Cl)ccn2ncc(Cl)c12 [Example 29, 2-(3,5-dichloropyrazolo[1,5-a]pyridin-4-yl)-1-[(1S)-5-[(1S)-2-fluoro-1-hydroxy-1-methyl-ethyl]-1-methyl-3,4-dihydro-1H-isoquinolin-2-yl]ethanone]
23 | ≤ 31.6 nM | C[C@H]1c2cccc([C@](C)(O)CF)c2CCN1C(=O)Cc1c(Cl)cnc2c1c(Cl)nn2C [Example 20, 2-(3,5-dichloro-1-methyl-pyrazolo[3,4-b]pyridin-4-yl)-1-[(1S)-5-((1S)-2-fluoro-1-hydroxy-1-methyl-ethyl)-1-methyl-3,4-dihydro-1H-isoquinolin-2-yl]ethanone]
24 | ≤ 31.6 nM | C[C@H]1c2cccc([C@@](C)(O)CF)c2CCN1C(=O)Cc1c(Cl)ccc2[nH]nc(Cl)c12 [Example 2, 2-(3,5-dichloro-1H-indazol-4-yl)-1-[(1S)-5-[(1R)-2-fluoro-1-hydroxy-1-methyl-ethyl]-1-methyl-3,4-dihydro-1H-isoquinolin-2-yl]ethanone]
25 | ≤ 31.6 nM | C[C@H]1c2cccc([C@H](O)C(F)F)c2CCN1C(=O)Cc1c(Cl)ccc2onc(Cl)c12 [Example 1, 2-(3,5-dichloro-1,2-benzoxazol-4-yl)-1-[(1S)-5-[(1S)-2,2-difluoro-1-hydroxy-ethyl]-1-methyl-3,4-dihydro-1H-isoquinolin-2-yl]ethanone]
26 | ≤ 31.6 nM | C[C@H]1c2cccc([C@](C)(O)CF)c2CCN1C(=O)Cc1c(Cl)cnc2[nH]nc(Cl)c12 [Example 14, 2-(3,5-dichloro-1H-pyrazolo[3,4-b]pyridin-4-yl)-1-[(1S)-5-[(1S)-2-fluoro-1-hydroxy-1-methyl-ethyl]-1-methyl-3,4-dihydro-1H-isoquinolin-2-yl]ethanone]
